Measured values reported in patent US9980982B2, “HE4 based therapy for malignant disease” (Women & Infants Hospital of Rhode Island, priority 2011, dated 2018).
Entries after “also recorded” stand apart in the source; their conditions may differ.

Legend:
[1] = tested on: SKOV-3 cells; assay: MTS cell viability assay, parental/wild-type SKOV-3 cells; format: cell-based, Human; conditions: 24 h; paclitaxel 6.25, 12.5 or 25 nM; cisplatin 40 or 80 μM
Experimental: (§1) Cell growth and viability of cell lines (complete medium, 24 h incubation) was determined by the CellTiter 96® AQueous One Solution Assay (Promega Corp, Madison, Wis.) following the manufacturer's recommendations with modifications (Lange T S et al., 2008 PLOS One, 3(5):e2303). Experiments are expressed as the mean of triplicate determinations (X±SD) of a representative experiment in OD (cell growth) or % of absorbance by drug-treated versus untreated cells [=100%] (cell viability). Cisplatin (CDDP), paclitaxel, doxorubicin and camptothecin (CPT) were purchased from (Sigma Aldrich, St. Louis, Mo.).
(§2) To analyze the potential biological relevance of elevated HE4 production for ovarian cancer cells the efficacy of commonly used anticancer drugs was examined in a viability assay (FIG. 5). SKOV-3 clones or parental cells were treated with cisplatin, paclitaxel, doxorubicin, or camptothecin for 24 h in various concentrations as indicated and the cytotoxicity evaluated.

[2] = tested on: HE4 overexpressing SKOV-3 clones HE4C1, -C3, -C7; assay: MTS cell viability assay, HE4 overexpressing SKOV-3 clones; format: cell-based, Human; conditions: for response of HE4 overexpressing SKOV-3 clones to drug treatment (viability, words): 24 h, clones HE4C1, -C3, -C7, compared to parental SKOV-3
Experimental: An HE4 overexpressing vector for stable expression was engineered by inserting a coding sequence of human WAP four-disulfide core domain 2 (WFDC2) cDNA into a multiple cloning site of an eukaryotic expression vector, pCMV6-entry (Origene, Rockville, Md.). Transfection of the constructs in SKOV-3 cells was performed using Lipofectamine 2000 (Invitrogen, Carlsbad, Calif.) according to the manufacturer's instructions. Stably transfected cells were selected by resistance to G-418 (500 μg/ml) (Research Products International, Mount Prospect, Ill.), applied 48 h after transfection and continued during cell culture. G-418 resistant cells were resuspended (density 5 cells/ml) in complete medium/G-418 and seeded as 200 μl/well on a 96 well cell culture plate (Corning, New York, N.Y.). Cells growing from single colonies (cloned; stable transfection) were isolated.
as §1, §2

[3] = tested on: HE4; assay: HE4 levels in SKOV-3 cell lysates and media by sandwich ELISA; format: cell-based, Human; conditions: cytotoxic agents, 24 hrs, serum free DMEM; versus untreated controls
Experimental: Various agents were examined by RT-PCR or by a sandwich ELISA. […] HE4 levels in cell lysates and media were evaluated by a sandwich ELISA.
Cells were grown for 24 h in 100 mm cell culture dishes (Corning, New York, N.Y.), supernatant collected and lysates of washed and scraped cells prepared as described previously (Lange T S et al., 2007Chem Biol Drug Design, 70:302-10). Total protein of lysates was quantitated (BioRad protein estimation kit, Hercules, Calif.), and HE4 levels were determined using the HE4 EIA assay (Fujirebio Diagnostics, Malvern, Pa.), a solid-phase, non-competitive immunoassay using two mouse monoclonal antibodies, directed against two epitopes in the C-WFDC domain. Calibration curves were used to measure HE4 concentrations in both cell lysates and culture media allowing for the calculation of production and secretion of HE4 in pmol/g total cellular protein.
FIG. 15 is a bar chart showing that treatment with growth factors and cytokines affect the HE4 levels in ovarian cancer cells. SKOV-3 cells (1 million each) were seeded in 100 mm dishes and incubated overnight. The cells were treated with an array of factors (IL-6, Insulin, TNFa, EGF) and incubated for another 6 hours. The media was collected and cells were lysed using the cell lysis buffer. The HE4 content in the media or in the cell-lysate was examined by a HE4 sandwich ELISA kit.

[4] = tested on: HE4 overexpressing clone-1 xenograft; assay: Cisplatin response and Kaplan-Meier analysis of animals xenografted with HE4 overexpressing clones; format: in vivo, nude mice; conditions: cisplatin treated, within 14 days
Experimental: To ascertain the role of HE4 in the progression of ovarian cancer, the xenografts of stable HE4 overexpressing (pCMV6-HE4) clones, SKOV-3 (wild type) and the null vector clones (pCMV6) cells were raised in nude mice (strain 088, Nu/Nu). The tumor size was measured weekly.
The survival rate, tumor size, and the cisplatin or vehicle treatment response of animals xenografted with HE4 overexpressing clone-1, parental SKOV-3, and null vector clones was determined. […] Therefore, HE4 overexpression imparted chemoresistance against cisplatin treatment in animals.

[5] = tested on: HE4; assay: HE4 secretion levels in xenografted animals by EIA ELISA; format: in vivo, nude mice; conditions: cisplatin 5 mg/kg bwt
Experimental: Because HE4 is a secretory protein, the secretion levels of HE4 were measured in animals by an EIA ELISA (Fujirebio Inc).

[6] = tested on: PI-3K; assay: In vitro immunoprecipitation lipid kinase (PIP-3) assay; format: cell-based, Human; conditions: HE4 overexpressing clones, Cisplatin treatment
Experimental: FIG. 18 is a series of photographs and a schematic illustrating that HE4 regulates EGFR/PI-3K signaling in ovarian cancer cells. […] (C) Mechanistic model of HE4 overexpression induced chemoresistance against Cisplatin via activation of EGFR and PI-3K and its signaling product PIP-3.
HE4 over-expression causes deactivation of pro-survival mitochondrial proteins in SKOV-3 cells. Ovarian cancer cells (SKOV-3) (1 million) were seeded in petri dishes and allowed to adhere overnight in DMEM media supplemented with 10% Fetal Bovine serum without antibiotic. In a separate tube, HE4 cDNA was complexed with lipofectamine (Invitrogen) for 1 min-2 hrs in Optimem media (Invitrogen). HE4 cDNA Lipofectamine complex dissolved in Optimem media were added to the cells. Lipofectamine and no drug were used as control. At different time points (4 hrs, 9 hrs and 24 hr), cells were collected and lysed using lysis buffer. […] Effect of HE4 activation on PIP2-PIP3 conversion was assessed by lipid kinase assay (Yano N. et al. Biochem. J. (2009) 423 (129-143).
A panel of stable HE4 overexpressing ovarian cancer SKOV-3 cell lines were developed by incorporation of pCMV6-HE4 vector. […] The cell viability was measured by MTS assay. Basal reactive oxygen species (ROS) production were measured by FACS analysis. In vitro Phosphoinositide-3-kinase (PI-3K) activity was measured by an immuno-precipitation PIP-3 assay. […]

[7] = tested on: DNA; assay: ICP-MS analysis of Cisplatin binding to DNA in cells; format: cell-based, Human; conditions: HE4+ clones versus parental SKOV-3 cells
Experimental: A panel of stable HE4 overexpressing ovarian cancer SKOV-3 cell lines were developed by incorporation of pCMV6-HE4 vector. Inducible HE4 overexpression was achieved by pTet-Off vector (VP 16 vector). The cell viability was measured by MTS assay. Basal reactive oxygen species (ROS) production were measured by FACS analysis. In vitro Phosphoinositide-3-kinase (PI-3K) activity was measured by an immuno-precipitation PIP-3 assay. An Inductively Coupled Plasma-Mass spectrometry (IPC-MS) analysis was carried out to estimate Cisplatin binding to DNA in cells. Mitochondria, rough ER and myelin figures were examined by Electron microscopy (EM). The screening of in-house library of compounds was carried out by MTS assay.

## N.N.[Cl][Pt][Cl] [cisplatin]
[1]
  effect on viability of wild-type SKOV-3 cells: reduced the viability of wild-type SKOV-3 cells drastically
[2]
  response of HE4 overexpressing SKOV-3 clones to drug treatment (viability, words): two clones did not respond; also recorded: significantly reduced response
[2]; listed as Cisplatin
  response of HE4 overexpressing SKOV-3 clones to drug treatment (viability, words): significantly reduced response
[2]; HE4C1, only at 80 μM
  sensitivity of clone HE4C1 to cisplatin: minor sensitivity
[2]; HE4C1 compared to parental and null vector cells
  fold chemoresistance against cisplatin: 2-4 fold
[2]; cell viability assay
  fold lower response / loss of efficacy / resistance of HE4 overexpressing SKOV-3 clones compared to parental SKOV-3: 20 fold
[3]
  effect on HE4 levels in SKOV-3: suppressed HE4 levels
[4]
  animals that reached terminal tumor size (≥14 mm): ~60%
[5]
  HE4 levels in cisplatin treated groups versus vehicle treated animals: did not differ significantly; also recorded: not significantly different
[6]
  effect on PIP-3 synthesis: further enhancement of PIP-3 synthesis
[7]
  Cisplatin binding to DNA: reduced Cisplatin binding to DNA

## CC(=O)O[C@H]1C(=O)[C@@]2(C)[C@H]([C@H](OC(=O)c3ccccc3)[C@]3(O)C[C@H](OC(=O)[C@H](O)[C@@H](NC(=O)c4ccccc4)c4ccccc4)C(C)=C1C3(C)C)[C@]1(OC(C)=O)CO[C@@H]1C[C@@H]2O [paclitaxel]
[1]
  effect on viability of wild-type SKOV-3 cells: reduced the viability of wild-type SKOV-3 cells drastically
[2]
  response of HE4 overexpressing SKOV-3 clones to drug treatment (viability, words): did not display a significantly altered viability
[2]; listed as Paclitaxel
  response of HE4 overexpressing SKOV-3 clones to drug treatment (viability, words): significantly reduced response
[3]
  effect on HE4 levels in SKOV-3: suppressed HE4 levels
